Assay results published in ChEMBL document CHEMBL4219248, “Design, in silico prioritization and biological profiling of apoptosis-inducing lactams amenable by the Castagnoli-Cushman reaction” (Bioorg Med Chem, 2018).

What was measured:
[1] = test system: U2OS; experiment: Cytotoxicity against human U2OS cells harboring p53-dependent EGFP reporter gene assessed as reduction in cell viability at 5 uM after 48 hrs; assay type: cell-based
[2] = test system: HCT-116; experiment: Induction of apoptosis in human HCT116 p53+ cells at 5 uM by Annexin V-FITC staining-based flow cytometric analysis relative to Nutlin-3a; assay type: functional
[3] = test system: HCT-116; experiment: Antiproliferative activity against human HCT116 p53-/- cells assessed as growth inhibition after 24 hrs by EdU/Hoechst 33342 staining-based fluorescence analysis; assay type: functional; conditions: HCT-116, 24 h
[4] = test system: HCT-116; experiment: Antiproliferative activity against human HCT116 p53+/+ cells assessed as growth inhibition after 24 hrs by EdU/Hoechst 33342 staining-based fluorescence analysis; assay type: functional; conditions: HCT-116, 24 h
[5] = test system: U2OS; experiment: Cytotoxicity against human U2OS cells harboring p53-dependent EGFP reporter gene assessed as reduction in cell viability at 30 uM after 48 hrs; assay type: cell-based

Which Activity [1] does the source give for `Cc1cccc([C@@H]2[C@@H](C(=O)NCCc3ccc(Cl)cc3)OCC(=O)N2c2ccc(F)c(Cl)c2)c1` (racemic) here?
The Activity was “Toxic”.

What about the Activity [2] of the same compound?
The Activity was 14.3%.

Which Activity [1] does the source give for `O=C(NCc1ccc2c(c1)OCCO2)[C@H]1CC(=O)N(c2ccc(F)c(F)c2)[C@@H]1c1ccc(Cl)cc1` (racemic) here?
The Activity was “Toxic”.

And the Activity [2]?
Its Activity is 16%.

With `O=C(NCc1ccc2c(c1)OCO2)[C@H]1CC(=O)N(c2cccc(Cl)c2)[C@@H]1c1cccc(F)c1` (racemic) as the compound, how does the Activity [1] read?
Its Activity is “Toxic”.

And the GI50 [3]?
The GI50 was 65 µM.

And the Activity [2]?
The Activity was 79.5%.

What about the GI50 [4] of the same compound?
The GI50 was 19 µM.

With `O=C(NCc1ccc(-n2ccnc2)cc1)[C@H]1OCC(=O)N(c2cccc(Cl)c2)[C@@H]1c1cccc(C(F)(F)F)c1` (racemic) as the compound, how does the Activity [1] read?
The Activity was “Toxic”.

What about the Activity [2] of the same compound?
The Activity was 39.3%.

For `CCOc1cccc(CNC(=O)[C@H]2OCC(=O)N(c3ccc(F)c(F)c3)[C@@H]2c2cccc(C)c2)c1` (mixture of isomers), which Activity [1] is on record?
The Activity was “Toxic”.

And the Activity [2]?
Its Activity is 10.3%.

How did the Activity [1] turn out when `COCCN(Cc1ccc(N(C)C)cc1)C(=O)[C@H]1CC(=O)N(c2ccc(F)c(F)c2)[C@@H]1c1ccc(Cl)cc1` (racemic) was run?
The Activity was “Toxic”.

And the Activity [2]?
The Activity was 19.2%.

`CC(C)[C@@H](CS(=O)(=O)C(C)C)N1C(=O)[C@@](C)(CC(=O)O)C[C@H](c2cccc(Cl)c2)[C@H]1c1ccc(Cl)cc1` [NAVTEMADLIN] was tested. Which GI50 [3] did it give?
Its GI50 is 33 µM.

And the Activity [2]?
Its Activity is 112%.

What about the GI50 [4] of the same compound?
Its GI50 is 7 µM.

Which results are given for `CC(C)(C)C[C@@H]1N[C@@H](C(=O)N[C@H]2CC[C@H](O)CC2)[C@H](c2cccc(Cl)c2F)[C@]12C(=O)Nc1cc(Cl)ccc12` [SAR-405838]?
GI50 [3]: 38 µM; Activity [2]: 115%; GI50 [4]: 6 µM

`COc1ccc(CNC(=O)[C@H]2OCC(=O)N(c3ccc(Cc4ccncc4)cc3)[C@@H]2c2ccc(Cl)cc2)cc1` (mixture of isomers) was tested. Which Activity [1] did it give?
The Activity was “Toxic”.

What about the Activity [2] of the same compound?
Its Activity is 6.4%.

With `O=C(NCc1ccc2c(c1)OCO2)[C@H]1CC(=O)N(c2ccc(F)c(Cl)c2)[C@@H]1c1ccc(Cl)cc1` (racemic) as the compound, how does the Activity [1] read?
The Activity was “Toxic”.

What about the GI50 [3] of the same compound?
The GI50 was 29 µM.

What about the Activity [2] of the same compound?
The Activity was 90.7%.

And the GI50 [4]?
Its GI50 is 8 µM.

With `Cc1cccc([C@@H]2[C@@H](C(=O)NCc3ccccc3F)OCC(=O)N2c2ccc(F)c(Cl)c2)c1` (racemic) as the compound, how does the Activity [1] read?
The Activity was “Toxic”.

What about the Activity [2] of the same compound?
Its Activity is 18.9%.

For `Cc1cccc([C@@H]2[C@@H](C(=O)NCc3ccc(Cl)cc3)OCC(=O)N2c2ccc(F)c(Cl)c2)c1` (racemic), which Activity [1] is on record?
The Activity was “Toxic”.

And the Activity [2]?
Its Activity is 16.8%.

What does the source list for `Cc1cccc([C@@H]2[C@@H](C(=O)NCc3cccnc3)OCC(=O)N2c2ccc(F)c(Cl)c2)c1` (racemic)?
Activity [1]: Toxic; Activity [2]: 12.4%

With `CC(C)Oc1ccc([C@@H]2[C@@H](C(=O)NCc3ccc(-n4ccnc4)cc3)CCC(=O)N2c2ccc(OC3CCCC3)cc2)cc1` (relative stereo) as the compound, how does the Activity [1] read?
Its Activity is “Toxic”.

And the Activity [2]?
The Activity was 35.2%.

How did the Activity [1] turn out when `COc1ccc(CN(CCCN2CCOCC2)C(=O)[C@H]2OCC(=O)N(c3ccc(Cc4ccncc4)cc3)[C@@H]2c2ccc(Cl)cc2)cc1` (racemic) was run?
Its Activity is “Toxic”.

What about the Activity [2] of the same compound?
Its Activity is 1.6%.

With `COc1ccc(CNC(=O)[C@H]2CC(=O)N(c3ccc(F)c(Cl)c3)[C@@H]2c2ccc(Cl)cc2)c(OC)c1` (racemic) as the compound, how does the Activity [1] read?
The Activity was “Toxic”.

What about the GI50 [3] of the same compound?
Its GI50 is 71 µM.

What about the Activity [2] of the same compound?
The Activity was 75%.

And the GI50 [4]?
Its GI50 is 22 µM.

How did the Activity [1] turn out when `Cc1cccc([C@@H]2[C@@H](C(=O)NCc3ccc(F)cc3)OCC(=O)N2c2ccc(F)c(Cl)c2)c1` (racemic) was run?
The Activity was “Toxic”.

What about the Activity [2] of the same compound?
Its Activity is 17%.

What does the source list for `O=C(NCc1ccc(Cl)cc1)[C@H]1OCC(=O)N(c2cccc(Cl)c2)[C@@H]1c1cccc(C(F)(F)F)c1` (relative stereo)?
Activity [1]: Toxic; GI50 [3]: 40 µM; Activity [2]: 84.6%; GI50 [4]: 12 µM

What does the source list for `Cc1cccc([C@@H]2[C@@H](C(=O)NCc3ccccc3)OCC(=O)N2c2ccc(F)c(Cl)c2)c1` (racemic)?
Activity [1]: Toxic; Activity [2]: 3.7%

Which results are given for `Cc1ccc(CNC(=O)[C@H]2OCC(=O)N(c3ccc(F)c(Cl)c3)[C@@H]2c2cccc(C)c2)cc1` (racemic)?
Activity [1]: Toxic; Activity [2]: 9.5%

How did the Activity [1] turn out when `COCCCN(Cc1ccc(N2CCCC2)cc1)C(=O)[C@H]1CC(=O)N(c2cccc(Cl)c2)[C@@H]1c1ccc(Cl)cc1` (relative stereo) was run?
The Activity was “Toxic”.

What about the Activity [2] of the same compound?
Its Activity is 24.1%.

For `C=CCOc1ccc([C@@H]2[C@@H](C(=O)NCCc3ccc(OC)c(OC)c3)N(C(=O)c3cccc(F)c3)CC(=O)N2C)cc1OCC` (racemic), which Activity [1] is on record?
The Activity was “Toxic”.

And the Activity [2]?
Its Activity is 0%.

For `COc1ccc(CNC(=O)[C@H]2OCC(=O)N(c3cccc(Cl)c3)[C@@H]2c2cccc(F)c2)cc1` (racemic), which Activity [1] is on record?
Its Activity is “Toxic”.

And the Activity [2]?
Its Activity is 0%.

For `O=C(NCc1ccc2c(c1)OCO2)[C@H]1OCC(=O)N(c2cccc(Cl)c2)[C@@H]1c1ccc(Cl)cc1` (racemic), which Activity [1] is on record?
Its Activity is “Toxic”.

And the GI50 [3]?
The GI50 was 72 µM.

And the Activity [2]?
Its Activity is 66.5%.

What about the GI50 [4] of the same compound?
Its GI50 is 20 µM.

With `Cc1cccc([C@@H]2[C@@H](C(=O)NCc3cccnc3)OCC(=O)N2c2ccc(F)c(F)c2)c1` (mixture of isomers) as the compound, how does the Activity [1] read?
The Activity was “Toxic”.

And the Activity [2]?
Its Activity is 6.7%.

For `COc1ccc(N2C(=O)CN(C(=O)c3ccncc3)[C@H](C(=O)NCc3cccc(C)c3)[C@H]2c2ccc(Cl)cc2)cc1` (racemic), which Activity [1] is on record?
The Activity was “Toxic”.

And the Activity [2]?
Its Activity is 11.1%.

What does the source list for `Cc1cccc([C@@H]2[C@@H](C(=O)NCc3ccc(Cl)cc3)OCC(=O)N2c2ccc(F)c(F)c2)c1` (racemic)?
Activity [1]: Toxic; Activity [2]: 7.1%

`COCCCN(Cc1ccc(N(C)C)cc1)C(=O)[C@H]1OCC(=O)N(c2ccc(Cc3ccncc3)cc2)[C@@H]1c1ccc(Cl)cc1` (racemic) was tested. Which Activity [1] did it give?
Its Activity is “Toxic”.

What about the Activity [2] of the same compound?
The Activity was 11.1%.

For `CCOc1ccc(CNC(=O)[C@H]2CC(=O)N(c3cccc(Cl)c3)[C@@H]2c2ccc(Cl)cc2)cc1` (racemic), which Activity [1] is on record?
Its Activity is “Toxic”.

What about the Activity [2] of the same compound?
Its Activity is 27.2%.

`COc1ccc(C2=N[C@@H](c3ccc(Cl)cc3)[C@@H](c3ccc(Cl)cc3)N2C(=O)N2CCNC(=O)C2)c(OC(C)C)c1` [NUTLIN-3] was tested. Which Activity [5] did it give?
Its Activity is “Toxic”.

What about the GI50 [3] of the same compound?
Its GI50 is 29 µM.

And the GI50 [4]?
Its GI50 is 9 µM.

With `Cc1ccc(CNC(=O)[C@H]2OCC(=O)N(c3ccc(F)c(Cl)c3)[C@@H]2c2cccc(F)c2)cc1` (racemic) as the compound, how does the Activity [1] read?
Its Activity is “Toxic”.

What about the Activity [2] of the same compound?
Its Activity is 20.1%.

With `O=C(NCc1ccc2c(c1)OCO2)[C@H]1CC(=O)N(c2ccc(F)c(F)c2)[C@@H]1c1ccc(Cl)cc1` (mixture of isomers) as the compound, how does the Activity [1] read?
The Activity was “Toxic”.

And the Activity [2]?
The Activity was 16%.

`CCOc1cccc(CNC(=O)[C@H]2OCC(=O)N(c3ccccc3)[C@@H]2c2cccc(F)c2)c1` (racemic) was tested. Which Activity [1] did it give?
The Activity was “Toxic”.

What about the Activity [2] of the same compound?
Its Activity is 3.2%.

Which Activity [1] does the source give for `Cc1cccc(CNC(=O)[C@@H]2[C@@H](c3ccc(Cl)cc3)N(c3ccc(Cl)cc3)C(=O)CN2C(=O)c2ccncc2)c1` (racemic) here?
Its Activity is “Toxic”.

And the GI50 [3]?
Its GI50 is 80 µM.

What about the Activity [2] of the same compound?
Its Activity is 63.4%.

What about the GI50 [4] of the same compound?
Its GI50 is 30 µM.

`O=C(NCc1ccccc1CN1CCCC1=O)[C@H]1CC(=O)N(c2ccc(F)c(Cl)c2)[C@@H]1c1ccc(Cl)cc1` (racemic) was tested. Which Activity [1] did it give?
The Activity was “Toxic”.

What about the GI50 [3] of the same compound?
Its GI50 is 32 µM.

What about the Activity [2] of the same compound?
The Activity was 123.9%.

What about the GI50 [4] of the same compound?
Its GI50 is 7 µM.

How did the Activity [1] turn out when `CN(C)c1ccc([C@@H]2[C@@H](C(=O)NCc3ccccc3CN3CCCC3=O)OCC(=O)N2c2ccc(Cc3ccncc3)cc2)cc1` (racemic) was run?
Its Activity is “Toxic”.

What about the Activity [2] of the same compound?
Its Activity is 0%.

How did the Activity [1] turn out when `COc1ccc(CNC(=O)[C@H]2OCC(=O)N(c3ccc(F)c(Cl)c3)[C@@H]2c2ccc(Cl)cc2)cc1` (racemic) was run?
Its Activity is “Toxic”.

And the GI50 [3]?
Its GI50 is 62 µM.

What about the Activity [2] of the same compound?
Its Activity is 85.3%.

And the GI50 [4]?
The GI50 was 18 µM.

What does the source list for `CCOc1ccc(CNC(=O)[C@H]2OCC(=O)N(c3ccc(F)c(F)c3)[C@@H]2c2cccc(C)c2)cc1` (mixture of isomers)?
Activity [1]: Toxic; Activity [2]: 8.5%

For `CCOc1cccc(CNC(=O)[C@H]2OCC(=O)N(c3ccc(F)c(Cl)c3)[C@@H]2c2cccc(F)c2)c1` (racemic), which Activity [1] is on record?
The Activity was “Toxic”.

What about the Activity [2] of the same compound?
Its Activity is 1.6%.

What does the source list for `CC(C)Oc1ccc([C@@H]2[C@@H](C(=O)NCc3ccccc3CN3CCOCC3)CCC(=O)N2c2ccc(Cc3ccncc3)cc2)cc1` (mixture of isomers)?
Activity [1]: Toxic; Activity [2]: 1.6%

Which results are given for `COc1cc(CNC(=O)[C@H]2CCC(=O)N(c3ccccc3)[C@@H]2c2ccc(Cl)cc2)ccc1OC(C)C` (racemic)?
Activity [1]: Toxic; GI50 [3]: 81 µM; Activity [2]: 69.1%; GI50 [4]: 26 µM
